Data: patent US11999746B2, “Compounds” (GlaxoSmithKline Intellectual Property Development Limited, priority 2014, dated 2024)

What was measured:
[1] = molecular target: T1, recombinant human Lp-PLA2 (Homo sapiens, UniProt Q13093); assay: (1a) PED6 assay, recombinant human Lp-PLA2 (rhLp-PLA2); assay type: biochemical; settings: Examples 1-167 and 413-430 were tested here, one experiment or average of multiple experiments, read-out: rhLp-PLA2 (pIC50) (converted)
T1 sequence (Q13093 22-441): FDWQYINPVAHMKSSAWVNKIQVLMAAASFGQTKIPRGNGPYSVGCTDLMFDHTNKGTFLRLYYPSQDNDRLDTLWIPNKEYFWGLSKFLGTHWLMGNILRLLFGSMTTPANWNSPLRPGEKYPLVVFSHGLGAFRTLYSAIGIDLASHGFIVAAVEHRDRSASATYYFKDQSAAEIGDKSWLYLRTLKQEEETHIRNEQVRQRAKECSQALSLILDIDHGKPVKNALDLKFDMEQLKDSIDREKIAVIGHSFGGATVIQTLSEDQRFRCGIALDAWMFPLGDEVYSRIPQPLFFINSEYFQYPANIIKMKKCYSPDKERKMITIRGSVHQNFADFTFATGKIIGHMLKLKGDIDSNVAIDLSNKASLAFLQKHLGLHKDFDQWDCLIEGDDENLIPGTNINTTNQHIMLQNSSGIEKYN
Summary of the method: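 PED6 (2 μM final after 1:1 addition of 4 μM stock) cleavage by rhLp-PLA2 (4 nM working solution) in 50 mM HEPES pH 7.4, 150 mM NaCl, 1 mM CHAPS; compounds preincubated with enzyme 30 minutes, reaction 20 min at room temperature. Fluorescence at ex 480/em 540; pIC50 from curve fit.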

Lp-PLA2 in human plasma = molecular target: T2, Lp-PLA2 in human plasma (Homo sapiens, UniProt Q13093); assay: (3a) Lp-PLA2 human plasma Thio-PAF assay; assay type: biochemical; settings: (3a) Thio-PAF assay, pooled human plasma; Examples 1-265 and 413-430 were tested here; read-out: pIC50 in the Lp-PLA2 human plasma assay (converted)
T2 construct: from tissue; host or cells: pooled human plasma
T2 sequence (Q13093 22-441): T1 sequence (Q13093 22-441)
Summary of the method: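 Endogenous Lp-PLA2 activity in frozen pooled human plasma measured as thiol release from 2-thio-PAF, detected by CPM fluorescence (ex 380/em 485). Compound preincubation 30 min; 2-min reaction in HEPES pH 7.4 buffer with NEM, stopped with 5% TFA, read 40 min later at room temperature; values as pIC50.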

Question: What does the source list for `O=c1nc(OCc2ccc(Oc3ccc(F)c(C(F)(F)F)c3)nc2)cc2n1CC1CCCN21` (centres unmarked) [Example E82, 3-((6-(4-fluoro-3-(trifluoromethyl)phenoxy)pyridin-3-yl)methoxy)-7,8,8a,9-tetrahydro pyrrolo[1′,2′:3,4]imidazo[1,2-c]pyrimidin-1(6H)-one]?
Answer: IC50 [1]: ≤ 100 nM; IC50 (Lp-PLA2 in human plasma): ≤ 10000 nM

Question: What does the source list for `O=c1nc(OCc2cc(F)c(Oc3cccc(C(F)(F)F)c3)c(F)c2)cc2n1C[C@@H]1CCCN21` [Example E83, (S)-3-((3,5-difluoro-4-(3-(trifluoromethyl)phenoxy)benzyl)oxy)-7,8,8a,9-tetrahydropyrrolo[1′,2′:3, 4]imidazo[1,2-c]pyrimidin-1(6H)-one]?
Answer: IC50 [1]: ≤ 1 nM; IC50 (Lp-PLA2 in human plasma): ≤ 100 nM

Question: How did the IC50 [1] turn out when `O=c1nc(OCc2ccc(Oc3ccc(F)c(C(F)(F)F)c3)nc2)cc2n1C[C@@H]1CCCN21` [Example E84, (S)-3-((6-(4-fluoro-3-(trifluoromethyl)phenoxy)pyridin-3-yl)methoxy)-7,8,8a,9-tetrahydro pyrrolo[1′,2′:3,4]imidazo[1,2-c]pyrimidin-1(6H)-one] was run?
Answer: ≤ 100 nM

Question: And the IC50 (Lp-PLA2 in human plasma)?
Answer: ≤ 10000 nM

Question: `N#Cc1cc(COc2cc3n(c(=O)n2)CC2CCCN32)ccc1Oc1cccc(F)c1` (centres unmarked) [Example E85, 2-(3-fluorophenoxy)-5-(((1-oxo-1,6,7,8,8a,9-hexahydropyrrolo[1,2′:3,4]imidazo[1,2-c]pyrimidin-3-yl)oxy)methyl)benzonitrile] was tested. Which IC50 [1] did it give?
Answer: ≤ 1 nM

Question: What about the IC50 (Lp-PLA2 in human plasma) of the same compound?
Answer: ≤ 100 nM

Question: With `N#Cc1cc(COc2cc3n(c(=O)n2)C[C@@H]2CCCN32)ccc1Oc1cccc(F)c1` [Example E86, (S)-2-(3-fluorophenoxy)-5-(((1-oxo-1,6,7,8,8a,9-hexahydropyrrolo[1′,2′:3,4]imidazo[1,2-c]pyrimidin-3-yl)oxy)methyl)benzonitrile] as the compound, how does the IC50 [1] read?
Answer: ≤ 100 nM

Question: And the IC50 (Lp-PLA2 in human plasma)?
Answer: ≤ 10000 nM

Question: With `N#Cc1cc(COc2cc3n(c(=O)n2)CC2CCCN32)ccc1Oc1cc(F)cc(F)c1` (centres unmarked) [Example E87, 2-(3,5-Difluorophenoxy)-5-(((1-oxo-1,6,7,8,8a,9-hexahydropyrrolo[1,2′:3,4]imidazo[1,2-c]pyrimidin-3-yl)oxy)methyl)benzonitrile] as the compound, how does the IC50 [1] read?
Answer: ≤ 1 nM

Question: And the IC50 (Lp-PLA2 in human plasma)?
Answer: ≤ 100 nM

Question: With `N#Cc1cc(COc2cc3n(c(=O)n2)C[C@@H]2CCCN32)ccc1Oc1cc(F)cc(F)c1` [Example E88, (S)-2-(3,5-difluorophenoxy)-5-(((1-oxo-1,6,7,8,8a,9-hexahydropyrrolo[1′,2′:3,4]imidazo[1,2-c]pyrimidin-3-yl)oxy)methyl)benzonitrile] as the compound, how does the IC50 [1] read?
Answer: ≤ 1 nM

Question: What about the IC50 (Lp-PLA2 in human plasma) of the same compound?
Answer: ≤ 10000 nM

Question: Which results are given for `O=c1nc(OCc2cc(F)c(F)c(F)c2)cc2n1CC1CCCN21` (centres unmarked) [Example E89, 3-((3,4,5-Trifluorobenzyl)oxy)-7,8,8a,9-tetrahydropyrrolo[1′,2′:3,4]imidazo[1,2-c] pyrimidin-1(6H)-one]?
Answer: IC50 [1]: ≤ 100 nM; IC50 (Lp-PLA2 in human plasma): ≤ 10000 nM

Question: What does the source list for `O=c1nc(OCc2cc(F)c(Oc3cnc(C(F)(F)F)nc3)c(F)c2)cc2n1CC1CCCN21` (centres unmarked) [Example E90, 3-((3,5-Difluoro-4-((2-(trifluoromethyl)pyrimidin-5-yl)oxy)benzyl)oxy)-7,8,8a,9-tetrahydro pyrrolo[1′,2′:3,4]imidazo[1,2-c]pyrimidin-1(6H)-one]?
Answer: IC50 [1]: ≤ 1 nM; IC50 (Lp-PLA2 in human plasma): ≤ 100 nM

Question: For `O=c1nc(OCc2cc(F)c(Oc3cnc(C(F)(F)F)nc3)c(F)c2)cc2n1C[C@@H]1CCCN21` [Example E91, (S)-3-((3,5-difluoro-4-((2-(trifluoromethyl)pyrimidin-5-yl)oxy)benzyl)oxy)-7,8,8a,9-tetra hydropyrrolo[1′,2′:3,4]imidazo[1,2-c]pyrimidin-1(6H)-one], which IC50 [1] is on record?
Answer: ≤ 1 nM

Question: What about the IC50 (Lp-PLA2 in human plasma) of the same compound?
Answer: ≤ 100 nM

Question: With `O=c1nc(OCc2cc(F)c(OC3CCCC(F)(F)C3)c(F)c2)cc2n1CC1CCCN21` (centres unmarked) [Example E92, 3-((4-((3,3-difluorocyclohexyl)oxy)-3,5-difluorobenzyl)oxy)-7,8,8a,9-tetrahydropyrrolo[1′,2′:3,4]imidazo[1,2-c]pyrimidin-1(6H)-one] as the compound, how does the IC50 [1] read?
Answer: ≤ 100 nM

Question: What about the IC50 (Lp-PLA2 in human plasma) of the same compound?
Answer: ≤ 10000 nM

Question: Which IC50 [1] does the source give for `O=c1nc(OCc2cc(F)c(OC3CCCC(F)(F)C3)c(F)c2)cc2n1C[C@@H]1CCCN21` (stereo partly drawn) [Example E93, (S)-3-((4-((3,3-difluorocyclohexyl)oxy)-3,5-difluorobenzyl)oxy)-7,8,8a,9-tetrahydropyrrolo[1′,2′:3,4]imidazo[1,2-c]pyrimidin-1(6H)-one] here?
Answer: ≤ 100 nM

Question: And the IC50 (Lp-PLA2 in human plasma)?
Answer: ≤ 10000 nM

Question: For `O=c1nc(OCc2cc(F)c(OC3CCC(F)(F)C3)c(F)c2)cc2n1CC1CCCN21` (centres unmarked) [Example E94, 3-((4-((3,3-difluorocyclopentyl)oxy)-3,5-difluorobenzyl)oxy)-7,8,8a,9-tetrahydropyrrolo[1′,2′:3,4]imidazo[1,2-c]pyrimidin-1(6H)-one], which IC50 [1] is on record?
Answer: ≤ 100 nM

Question: What about the IC50 (Lp-PLA2 in human plasma) of the same compound?
Answer: ≤ 10000 nM

Question: What does the source list for `O=c1nc(OCc2cc(F)c(OC3CCC(F)(F)C3)c(F)c2)cc2n1C[C@@H]1CCCN21` (stereo partly drawn) [Example E95, (S)-3-((4-((3,3-difluorocyclopentyl)oxy)-3,5-difluorobenzyl)oxy)-7,8,8a,9-tetrahydropyrrolo[1′,2′:3,4]imidazo[1,2-c]pyrimidin-1(6H)-one]?
Answer: IC50 [1]: ≤ 100 nM; IC50 (Lp-PLA2 in human plasma): ≤ 10000 nM

Question: How did the IC50 [1] turn out when `O=c1nc(OCc2cc(F)c(OC3CN(CCC(F)(F)F)C3)c(F)c2)cc2n1CC1CCCN21` (centres unmarked) [Example E96, 3-((3,5-Difluoro-4-((1-(3,3,3-trifluoropropyl)azetidin-3-yl)oxy)benzyl)oxy)-7,8,8a,9-tetrahy dropyrrolo[1′,2′:3,4]imidazo[1,2-c]pyrimidin-1(6H)-one] was run?
Answer: ≤ 100 nM

Question: What about the IC50 (Lp-PLA2 in human plasma) of the same compound?
Answer: ≤ 10000 nM

Question: How did the IC50 [1] turn out when `O=c1nc(OCc2cc(F)c(OC3CN(CCC(F)(F)F)C3)c(F)c2)cc2n1C[C@@H]1CCCN21` [Example E97, (S)-3-((3,5-difluoro-4-((1-(3,3,3-trifluoropropyl)azetidin-3-yl)oxy)benzyl)oxy)-7,8,8a,9-tetra hydropyrrolo[1′,2′:3,4]imidazo[1,2-c]pyrimidin-1(6H)-one] was run?
Answer: ≤ 100 nM

Question: And the IC50 (Lp-PLA2 in human plasma)?
Answer: ≤ 10000 nM

Question: With `CCCCN1CC(Oc2c(F)cc(COc3cc4n(c(=O)n3)CC3CCCN43)cc2F)C1` (centres unmarked) [Example E98, 3-((4-((1-Butylazetidin-3-yl)oxy)-3,5-difluorobenzyl)oxy)-7,8,8a,9-tetrahydropyrrolo[1′,2′:3,4]imidazo[1,2-c]pyrimidin-1(6H)-one] as the compound, how does the IC50 [1] read?
Answer: ≤ 100 nM

Question: What about the IC50 (Lp-PLA2 in human plasma) of the same compound?
Answer: ≤ 10000 nM

Question: For `O=c1nc(OCc2cc(F)c(CCCF)c(F)c2)cc2n1CC1CCCN21` (centres unmarked) [Example E99, 3-((3,5-Difluoro-4-(3-fluoropropyl)benzyl)oxy)-7,8,8a,9-tetrahydropyrrolo[1′,2′:3,4] imidazo[1,2-c]pyrimidin-1(6H)-one], which IC50 [1] is on record?
Answer: ≤ 100 nM

Question: What about the IC50 (Lp-PLA2 in human plasma) of the same compound?
Answer: ≤ 10000 nM

Question: What does the source list for `O=c1nc(OCc2ccc(F)cc2F)cc2n1C[C@H]1CCCN21` [Example E100, (R)-3-((2,4-difluorobenzyl)oxy)-7,8,8a,9-tetrahydropyrrolo[1,2′:3,4]imidazo[1,2-c] pyrimidin-1(6H)-one]?
Answer: IC50 [1]: ≤ 100 nM; IC50 (Lp-PLA2 in human plasma): ≤ 10000 nM

Question: Which results are given for `O=c1nc(OCc2cccc(F)c2F)cc2n1C[C@H]1CCCN21` [Example E101, (R)-3-((2,3-difluorobenzyl)oxy)-7,8,8a, 9-tetrahydropyrrolo[1′, 2′:3, 4]imidazo[1,2-c] pyrimidin-1(6H)-one]?
Answer: IC50 [1]: ≤ 100 nM; IC50 (Lp-PLA2 in human plasma): ≤ 10000 nM

Question: `O=c1nc(OCc2cccc(F)c2)cc2n1C[C@H]1CCCN21` [Example E102, (R)-3-((3-fluorobenzyl)oxy)-7,8,8a,9-tetrahydropyrrolo[1′,2′:3,4]imidazo[1,2-c]pyrimidin-1(6H)-one] was tested. Which IC50 [1] did it give?
Answer: ≤ 100 nM

Question: And the IC50 (Lp-PLA2 in human plasma)?
Answer: ≤ 10000 nM

Question: For `O=c1nc(OCc2cc(F)cc(F)c2)cc2n1C[C@H]1CCCN21` [Example E103, (R)-3-((3,5-difluorobenzyl)oxy)-7,8,8a,9-tetrahydropyrrolo[1,2′:3,4]imidazo[1,2-c] pyrimidin-1(6H)-one], which IC50 [1] is on record?
Answer: ≤ 100 nM

Question: And the IC50 (Lp-PLA2 in human plasma)?
Answer: ≤ 10000 nM

Question: `O=c1nc(NCc2cccc(F)c2)cc2n1C[C@H]1CCCN21` [Example E104, (R)-3-((3-fluorobenzyl)amino)-7,8,8a,9-tetrahydropyrrolo[1′,2′:3,4]imidazo[1,2-c]pyrimidin-1(6H)-one] was tested. Which IC50 [1] did it give?
Answer: ≤ 100 nM

Question: And the IC50 (Lp-PLA2 in human plasma)?
Answer: ≤ 10000 nM

Question: `O=c1nc(OCc2cc(F)c(OC3(CCF)CC3)c(F)c2)cc2n1C[C@H]1CCCN21` [Example E105, (R)-3-((3,5-difluoro-4-(1-(2-fluoroethyl)cyclopropoxy)benzyl)oxy)-7,8,8a,9-tetrahydro pyrrolo[1′,2′:3,4]imidazo[1,2-c]pyrimidin-1(6H)-one] was tested. Which IC50 [1] did it give?
Answer: ≤ 100 nM

Question: And the IC50 (Lp-PLA2 in human plasma)?
Answer: ≤ 10000 nM

Question: Which results are given for `Cc1cc(Oc2c(F)cc(COc3cc4n(c(=O)n3)C[C@H]3CCCN43)cc2F)ccn1` [Example E106, (R)-3-((3,5-difluoro-4-((2-methylpyridin-4-yl)oxy)benzyl)oxy)-7,8,8a,9-tetrahydro pyrrolo[1′,2′:3,4]imidazo[1,2-c]pyrimidin-1(6H)-one]?
Answer: IC50 [1]: ≤ 100 nM; IC50 (Lp-PLA2 in human plasma): ≤ 10000 nM
